In patent US11617814B2, “Methods of treatment comprising administering polymer particles configured for intravascular delivery of pharmaceutical agents” (TERUMO CORPORATION, priority 2016, dated 2023):

Key:
[1] = In vivo elution: systemic concentration of SN-38 in plasma after embolization, LC/MS/MS
Description: (§1) Blood samples were obtained to determine the systemic concentration of SN-38 before embolization as well as 20, 40, 60, 120 and 180 minutes post-embolization. An additional blood sample was collected at sacrifice, which was at day 6. Plasma was prepared by centrifugation and the samples were frozen at −80° C. until analysis.
Quantitation was done via liquid chromatography-tandem mass spectrometry (LC/MS/MS) using an Agilent 1260 Infinity HPLC system coupled with ABSciex 4000 Q Trap LC/MS/MS system. Chromatographic separation was performed using an Agilent Poroshell 120 C18 column (4.6 mm×50 mm, 2.7 μm) at 25° C. and mobile phases consisting of A: 0.1% formic acid in acetonitrile and B: 0.1% formic acid in water. At a flow rate of 1.0 mL/min, the chromatographic gradient was 27% buffer A from 0.0-0.3 min, 27-52% from 0.3-2.5 min, 52-80% from 2.5-2.6 min, 80% from 2.6-2.7 min, 80-27% from 2.7-2.8 min, 27% from 2.9-4.0 min. The plasma samples were precipitated with 3 fold excess (v/v) of acetonitrile containing 50 ppb of the internal standard, camptothecin. After being vortexed and centrifuged at 13,000 rpm at 4° C. for 10 minutes, 200 μL of the supernatant of each sample was diluted with 600 μL of 0.1% formic acid in water. Injection of 100 μL of the diluted sample was performed. The calibration curve was prepared by spiking blank plasma to a range from 2.5-500 ppb for SN-38. […]

[2] = Solubility of SN-38 in water, observed in the elution extract; type: physicochemical; conditions: yellow precipitate formed in the extract solution
Description: The kinetics of SN-38 elution from the preloaded particles is illustrated in FIG. 1. The theoretical amount of SN-38 tethered on the particles is 15 mg for 100 mg of particles assuming no loss of the drug during the preparation of the particles. Upon immersion in PBS, SN-38 was eluted slowly over a period of time. On day 8, there was approximately 3% of SN-38 eluted. The elution curve obtained is fairly close to a linear line over the period of 8 days with a steady daily release between 3-5% of loaded SN-38 indicating controlled release of SN-38 is achieved with the preloaded particles. The total amount of SN-38 eluted during the first 8 days was 34% of the theoretical amount.

[3] = In vivo elution: systemic concentration of oxaliplatin in plasma after embolization, LC/MS/MS; parameters: species or system pig
Description: as §1, with “oxaliplatin” for “SN-38”, “6 or day 7.” for “6.”
Quantitation was done via LC/MS/MS using an Agilent 1260 Infinity HPLC system coupled with ABSciex 4000 Q Trap LC/MS/MS system. Chromatographic separation was performed using an Agilent Poroshell 120 C18 column (4.6 mm×50 mm, 2.7 μm) at 50° C. and mobile phase consisting of A: 0.1% formic acid in acetonitrile and B: 0.1% formic acid in water. At a flow rate of 500 μL/min, the chromatographic gradient was 0% buffer A from 0.0-2.5 min, 0-90% from 2.5-2.6 min, 90% from 2.6-4.1 min, 90-0% from 4.1-4.2 min, and 0% from 4.2-10.0 min. The divert valve was open from 1.4-2.7 min and 3.4-4.6 min. The plasma samples were purified by ultracentrifugation first and then solid phase extraction. Plasma sample, 500 μL, was loaded onto a 30K Nanosep Centrifuge Device and centrifuged to collect the plasma ultra-filtrate. The centrifugation was performed at 4° C., starting at 8,000 rcf for 30 mins, 9,000 rcf for 30 mins, and 10,000 rcf for 15 mins with an increment of 1,000 rcf every 15 mins until 13,000 rcf for 2 hrs and 15 mins. The collected plasma ultra-filtrate was diluted with 1:1 (v/v) ratio of acetonitrile containing 500 ppb of the internal standard, carboplatin. The mixture, 600 μL, was loaded onto a 1 mL HybridSPE-Phospholipid cartridge, which was placed in a 15 mL conical centrifuge tube and centrifuged at 4° C. at 1,000 rcf for 5 mins and then 4,000 rcf for 5 mins. The sample collected in the centrifuge tube was then transferred to an HPLC vial for analysis. Injection of 50 μL of the sample was performed. The calibration curve was prepared by spiking the blank plasma ultra-filtrate to a range from 5-2000 ppb. The systemic concentration of oxalipatin in plasma over time is illustrated in FIG. 3.

Row | SMILES | systemic concentration of SN-38 in plasma ([1]; each time point: pre-embolization, 20, 40, 60, 120, 180 min post-embolization and day 6, calibration 2.5-500 ppb) | time of highest systemic concentration of SN-38 ([1]; post embolization, plasma) [h] | solubility of SN-38 in water [2] | systemic concentration of oxaliplatin in plasma ([3]; each time point: pre-embolization, 20, 40, 60, 120, 180 min post-embolization and day 6 or 7, plasma ultra-filtrate, calibration 5-2000 ppb) | systemic concentration of oxaliplatin at day 6 ([3]; one sample pig, day 6) | time of highest systemic concentration of oxaliplatin ([3]; post embolization, one sample pig) [h]
1 | CCc1c2c(nc3ccc(O)cc13)-c1cc3c(c(=O)n1C2)COC(=O)[C@]3(O)CC [SN-38, 7-ethyl-10-hydroxy-camptothecin] | lower than the lower limit of quantitation | 3 | poor solubility | – | – | –
2 | O=C1[O][Pt]2([NH][C@@H]3CCCC[C@H]3[NH]2)[O]C1=O [oxaliplatin] | – | – | – | lower than the lower limit of quantitation | close to pre-embolization | 3
